This is an account of results in US9987276B2 (Celgene CAR LLC, priority 2008, dated 2018).

Bounds are passed on as bounds.

Chain of EGFR-WT (P00533 668-1210): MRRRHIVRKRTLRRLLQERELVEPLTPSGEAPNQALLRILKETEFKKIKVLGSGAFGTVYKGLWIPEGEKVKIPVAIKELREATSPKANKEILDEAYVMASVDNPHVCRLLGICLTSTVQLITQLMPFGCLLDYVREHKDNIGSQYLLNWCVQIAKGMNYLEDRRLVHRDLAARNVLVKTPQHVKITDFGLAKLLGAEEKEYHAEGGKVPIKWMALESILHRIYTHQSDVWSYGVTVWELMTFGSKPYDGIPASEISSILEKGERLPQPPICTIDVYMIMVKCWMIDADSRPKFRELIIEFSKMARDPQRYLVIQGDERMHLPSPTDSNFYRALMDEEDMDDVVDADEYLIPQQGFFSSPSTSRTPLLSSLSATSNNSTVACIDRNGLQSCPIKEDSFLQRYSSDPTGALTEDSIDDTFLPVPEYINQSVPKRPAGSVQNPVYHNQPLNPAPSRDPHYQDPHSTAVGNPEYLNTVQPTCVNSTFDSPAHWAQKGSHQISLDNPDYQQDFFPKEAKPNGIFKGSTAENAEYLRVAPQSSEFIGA

The first test has as its target EGFR-WT (Homo sapiens (Human), UniProt P00533). Description: Omnia assay for potency assessment against EGFR (WT).
Details: not given
With `Cc1cccc(Nc2nc(Nc3cccc(NC(=O)/C=C/CN4CCC4)c3)ncc2F)c1` [Compound I-123, (E)-4-(azetidin-1-yl)-N-(3-(5-fluoro-4-(m-tolylamino)pyrimidin-2-ylamino)phenyl)but-2-enamide], the IC50 lay in the range of 0.01 to 0.1 µM.

In turn, `C=CC(=O)N1CCOc2ccc(Nc3nc(Nc4ccc(N5CCCC5=O)cc4)ncc3C(C)=O)cc21` [Compound I-152, 1-{4-[5-Acetyl-4-(4-acryloyl-3,4-dihydro-2H-benzo[1,4]oxazin-6-ylamino)-pyrimidin-2-ylamino]-phenyl}-pyrrolidin-2-one] registered an IC50 of 0.01 to 0.1 µM.

As to `C=CC(=O)Nc1cccc(Nc2nc(Nc3ccc(OCCOC)cc3)ncc2C2CC2)c1` [Compound I-139, N-(3-(5-cyclopropyl-2-(4-(2-methoxyethoxy)phenylamino)pyrimidin-4-ylamino)phenyl)acrylamide], the IC50 was 0.01 to 0.1 µM.

Compound `Cc1cccc(Nc2nc(Nc3cccc(NC(=O)/C=C/CN4CCOCC4)c3)ncc2F)c1` [Compound I-102, (E)-N-(3-(5-fluoro-4-(m-tolylamino)pyrimidin-2-ylamino)phenyl)-4-morpholinobut-2-enamide] gave an IC50 of 0.1 to 1 µM.

`C=C(Cn1cccn1)C(=O)Nc1cccc(Nc2ncc(F)c(Nc3cccc(C)c3)n2)c1` [Compound I-98, 2-((1H-pyrazol-1-yl)methyl)-N-(3-(5-fluoro-4-(m-tolylamino)pyrimidin-2-ylamino)phenyl)acrylamide]: the IC50 is 0.1 to 1 µM.

Take `C=CC(=O)Nc1cccc(N(C)c2nc(Nc3ccc4c(c3)N(C)CCO4)ncc2F)c1` [Compound I-127]: the IC50 fell in the range of 0.1 to 1 µM.

`C=CC(=O)N1CCOc2ccc(Nc3nc(Nc4ccc(OCCO)nc4)ncc3C(C)=O)cc21` [Compound I-128, 1-(6-{5-Acetyl-2-[6-(2-hydroxy-ethoxy)-pyridin-3-ylamino]-pyrimidin-4-ylamino}-2,3-dihydro-benzo[1,4]oxazin-4-yl)-propenone] displayed an IC50 of 0.01 to 0.1 µM.

The test is the same for the next values; noted with them: read-out: EGFR (wild type inhibition); EGFR wild type.
Consider `Cc1cccc(Nc2nc(Nc3cccc(NC(=O)/C=C/Cn4cccn4)c3)ncc2F)c1` [Compound I-100, (E)-N-(3-(5-fluoro-4-(m-tolylamino)pyrimidin-2-ylamino)phenyl)-4-(1H-pyrazol-1-yl)but-2-enamide], for which the IC50 lay within 1 to 10 µM.

Regarding `COCCOc1ccc(Nc2ncc(F)c(Nc3ccc(CC(=O)C=C(C)C)cc3)n2)cc1F` [Compound I-331, 1-(4-(5-fluoro-2-(3-fluoro-4-(2-methoxyethoxy)phenylamino)pyrimidin-4-ylamino)phenyl)-4-methylpent-3-en-2-one], the IC50 lay in the range of 1 to 10 µM.

With `C=CC(=O)NCc1ccc(Nc2nc(Nc3cccc(OC)c3)ncc2C(F)(F)F)cc1` [Compound I-235, N-(4-(5-trifluoromethyl-2-(3-methoxyphenylamino)pyrimidin-4-ylamino)phenyl)methylacrylamide], the IC50 was above 10 µM.

With `COCCOc1ccc(Nc2ncc(F)c(Nc3cccc(CC(=O)C=C(C)C)c3)n2)cc1F` [Compound I-330, 1-(3-(5-fluoro-2-(3-fluoro-4-(2-methoxyethoxy)phenylamino)pyrimidin-4-ylamino)phenyl)-4-methylpent-3-en-2-one], the IC50 was above 10 µM.

`C=CC(=O)Nc1cccc(Nc2nc(Nc3ccc(OC)nc3)ncc2C(=O)NC(C)(C)C)c1` [Compound I-216, 4-(3-acrylamidophenylamino)-N-tert-butyl-2-(6-methoxypyridin-3-ylamino)pyrimidine-5-carboxamide]: the IC50 lay in the range of 1 to 10 µM.

For `C=CC(=O)NCc1cccc(Nc2nc(Nc3cccc(OC)c3)ncc2C(F)(F)F)c1` [Compound I-226, N-(3-(5-trifluoromethyl-2-(3-methoxyphenylamino)pyrimidin-4-ylamino)phenyl)methylacrylamide], the IC50 lay in the range of 1 to 10 µM.

For the compound `COCCOc1ccc(Nc2ncc(F)c(Nc3ccc(C(=O)C=C(C)C)cc3)n2)cc1F` [Compound I-325, 1-(4-(5-fluoro-2-(3-fluoro-4-(2-methoxyethoxy)phenylamino)pyrimidin-4-ylamino)phenyl)-3-methylbut-2-en-1-one], the IC50 fell in the range of 1 to 10 µM.
